These are literature values, as cited in patent publication US20130177904A1, “ARNT ISOFORM 3 AS A PREDICTOR OF AMINOFLAVONE RESPONSIVENESS IN CANCER CELLS” (UNIVERSITY OF MARYLAND, BALTIMORE, priority 2010, published 2013).

The test system of the data set is nonspecific plasma esterases. Conditions: by nonspecific plasma esterases; cited from earlier work.

In the case of `CS(=O)(=O)O.Cc1c(F)c(N)c2c(=O)cc(-c3ccc(NC(=O)[C@@H](N)CCCCN)c(F)c3)oc2c1F` [AFP-464], the “conversion to AF in plasma” value is “rapid conversion to AF”.
